The values below come from ChEMBL document CHEMBL1275450, “Posaconazole enhances the activity of amphotericin B against hyphae of zygomycetes in vitro” (2008).

Holding throughout (format): functional
The subject of test [1] is Rhizopus. Description: Antimicrobial activity against Rhizopus spp. hyphae after 24 hrs by AFST-EUCAST method.
Test [2] has as its system Mucor. Description: Antimicrobial activity against Mucor spp. conidia after 24 hrs by AFST-EUCAST method.
Test [3] deals with Lichtheimia corymbifera. The test is described as follows: Antimicrobial activity against Absidia corymbifera hyphae after 24 hrs by AFST-EUCAST method.
In test [4] the test system is Syncephalastrum racemosum. Description: Antimicrobial activity against Syncephalastrum racemosum hyphae after 24 hrs by AFST-EUCAST method.
Test [5] deals with Rhizomucor. Description: Antimicrobial activity against Rhizomucor spp. hyphae after 24 hrs by AFST-EUCAST method.
Test [6] has as its system Cunninghamella bertholletiae. Description: Antimicrobial activity against Cunninghamella bertholletiae hyphae after 24 hrs by AFST-EUCAST method.
Test [7] concerns Syncephalastrum racemosum. Description: Antimicrobial activity against Syncephalastrum racemosum conidia after 24 hrs by AFST-EUCAST method.
In test [8] the test system is Rhizopus. Description: Antimicrobial activity against Rhizopus spp. conidia after 24 hrs by AFST-EUCAST method.
Test [9] concerns Mucor. The test is described as follows: Antimicrobial activity against Mucor spp. hyphae after 24 hrs by AFST-EUCAST method.
In test [10] the test system is Lichtheimia corymbifera. The test is described as follows: Antimicrobial activity against Absidia corymbifera conidia after 24 hrs by AFST-EUCAST method.
For test [11], the system named is Cunninghamella bertholletiae. The test is described as follows: Antimicrobial activity against Cunninghamella bertholletiae conidia after 24 hrs by AFST-EUCAST method.
Test [12] concerns Rhizomucor. The test is described as follows: Antimicrobial activity against Rhizomucor spp. conidia after 24 hrs by AFST-EUCAST method.
In test [13] the test system is Cunninghamella bertholletiae. Description: Antimicrobial activity against Cunninghamella bertholletiae conidia after 24 hrs by XTT method in presence of amphotericin B. (Formazan colour is commonly taken as a measure of viable cells.)
Test [14] relates to Cunninghamella bertholletiae. The test is described as follows: Antimicrobial activity against Cunninghamella bertholletiae hyphae after 24 hrs by XTT method in presence of amphotericin B.
The subject of test [15] is Lichtheimia corymbifera. Description: Antimicrobial activity against Absidia corymbifera conidia after 24 hrs by XTT method in presence of amphotericin B.
The subject of test [16] is Rhizopus arrhizus. The test is described as follows: Antimicrobial activity against Rhizopus oryzae conidia after 24 hrs by XTT method in presence of amphotericin B.
The test system of test [17] is Mucor. Description: Antimicrobial activity against Mucor spp. conidia after 24 hrs by XTT method in presence of amphotericin B.
Test [18] relates to Mucor. Description: Antimicrobial activity against Mucor spp. hyphae after 24 hrs by XTT method in presence of amphotericin B.
For test [19], the system named is Rhizomucor. Description: Antimicrobial activity against Rhizomucor spp. conidia after 24 hrs by XTT method in presence of amphotericin B.
Test [20] is described as follows: Antimicrobial activity against Rhizopus microsporus hyphae after 24 hrs by XTT method in presence of amphotericin B.
The subject of test [21] is Syncephalastrum racemosum. Description: Antimicrobial activity against Syncephalastrum racemosum hyphae after 24 hrs by XTT method in presence of amphotericin B.
Test [22] relates to Lichtheimia corymbifera. Description: Antimicrobial activity against Absidia corymbifera hyphae after 24 hrs by XTT method in presence of amphotericin B.
Test [23] has as its system Syncephalastrum racemosum. The test is described as follows: Antimicrobial activity against Syncephalastrum racemosum conidia after 24 hrs by XTT method in presence of amphotericin B.
Test [24] in a line: Antimicrobial activity against Rhizopus microsporus conidia after 24 hrs by XTT method in presence of amphotericin B.
Test [25] has as its system Rhizomucor. The test is described as follows: Antimicrobial activity against Rhizomucor spp. hyphae after 24 hrs by XTT method in presence of amphotericin B.
Test [26] concerns Rhizopus arrhizus. Description: Antimicrobial activity against Rhizopus oryzae hyphae after 24 hrs by XTT method in presence of amphotericin B.

Molecules are shown by their SMILES. Converted amounts (≈) assume the structure as drawn.

For orientation: MIC means the lowest concentration that inhibits growth of the organism. A low value points to a more susceptible organism. On to `C[C@@H]1[C@H](O)[C@@H](C)/C=C/C=C/C=C/C=C/C=C/C=C/C=C/[C@H](O[C@@H]2O[C@H](C)[C@@H](O)[C@H](N)[C@@H]2O)C[C@@H]2O[C@](O)(C[C@@H](O)C[C@@H](O)[C@H](O)CC[C@@H](O)C[C@@H](O)CC(=O)O[C@H]1C)C[C@H](O)[C@H]2C(=O)O` [AMPHOTERICIN B], for which the MIC with Rhizopus [1] is 1 mg/L (≈ 1.08 µM); against Mucor [2] it was 0.5 mg/L (≈ 0.541 µM); against Lichtheimia corymbifera [3] it was 1 mg/L (≈ 1.08 µM); in test [4], 1 mg/L (≈ 1.08 µM); against Rhizomucor [5], 1 mg/L (≈ 1.08 µM); in test [6], 1 mg/L (≈ 1.08 µM). The MIC in test [7] is 0.5 mg/L (≈ 0.541 µM); in the test with Rhizopus [8], 0.5 mg/L (≈ 0.541 µM); against Mucor [9] it was 1 mg/L (≈ 1.08 µM); against Lichtheimia corymbifera [10], 0.5 mg/L (≈ 0.541 µM); in [11] it was 0.5 mg/L (≈ 0.541 µM); against Rhizomucor [12], 0.5 mg/L (≈ 0.541 µM).
On to `CC[C@@H]([C@H](C)O)n1ncn(-c2ccc(N3CCN(c4ccc(OC[C@@H]5CO[C@@](Cn6cncn6)(c6ccc(F)cc6F)C5)cc4)CC3)cc2)c1=O` [POSACONAZOLE], for which the “fractional inhibitory concentration index (FICI)” value in test [13] came to 1.1; in test [14] it was 0.5; in the test on Lichtheimia corymbifera [15] it was 0.75; in the test on Rhizopus arrhizus [16] it was 0.75; with Mucor [17], 1.25; in the test on Mucor [18], 0.5. For the same compound, the “fractional inhibitory concentration index (FICI)” value with Rhizomucor [19] is listed as 0.5; in test [20], 0.37; in [21], 0.6; with Lichtheimia corymbifera [22] it was 0.37; in test [23], 1; in [24], 0.37. Besides, the “fractional inhibitory concentration index (FICI)” value in the test on Rhizomucor [25] amounted to 0.75; in the test with Rhizopus arrhizus [26], 1. The MIC against Rhizopus [1] is 1 mg/L (≈ 1.43 µM); against Mucor [2], 0.25 mg/L (≈ 0.357 µM); in the test with Lichtheimia corymbifera [3], 1 mg/L (≈ 1.43 µM); in test [4], 1 mg/L (≈ 1.43 µM); in the test on Rhizomucor [5], 1 mg/L (≈ 1.43 µM); in [6], 1 mg/L (≈ 1.43 µM). For the same compound, the minimal inhibitory concentration (MIC) in test [7] was 0.25 mg/L (≈ 0.357 µM); in the test on Rhizopus [8] it was 0.25 mg/L (≈ 0.357 µM); with Mucor [9], 1 mg/L (≈ 1.43 µM); against Lichtheimia corymbifera [10], 0.25 mg/L (≈ 0.357 µM); in test [11], 0.25 mg/L (≈ 0.357 µM); against Rhizomucor [12], 0.25 mg/L (≈ 0.357 µM).
